This is an account of results in patent US20260250250A1, “3-(SULPHONYL OR SULFONIMIDOYL)PROP-2-EN-1-YL]-2-OXO-1,2-DIHYDROPYRIDINE-3-CARBOXAMIDE DERIVATIVES” (Flinder Therapeutics B.V., priority 2022, published 2026).

Molecules are shown by their SMILES.

Test [1] has as its target T1, human E3 ubiquitin-protein ligase RNF31 (HOIP) (Homo sapiens, UniProt Q96EP0).
T1 sequence (Q96EP0 695-1072 limits assumed): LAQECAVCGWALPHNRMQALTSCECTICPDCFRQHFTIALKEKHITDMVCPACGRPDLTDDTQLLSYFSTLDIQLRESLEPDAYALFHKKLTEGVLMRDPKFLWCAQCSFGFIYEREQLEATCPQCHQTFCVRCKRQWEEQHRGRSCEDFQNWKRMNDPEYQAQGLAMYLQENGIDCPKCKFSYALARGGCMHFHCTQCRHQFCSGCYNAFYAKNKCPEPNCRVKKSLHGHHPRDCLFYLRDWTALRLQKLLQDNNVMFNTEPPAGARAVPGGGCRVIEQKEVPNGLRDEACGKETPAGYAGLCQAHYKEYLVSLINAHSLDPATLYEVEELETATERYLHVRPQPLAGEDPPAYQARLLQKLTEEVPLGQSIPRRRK
As to the kind of experiment: Cell-free HTRF-based HOIP inhibition assay. In kind it is biochemical. The procedure, abridged:
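Recombinant human HOIP fragment (E. coli) preincubated with compounds (100-0.005 μM, 1% DMSO) and E1 for 1 h at 25° C. E2 and substrates then added; reaction 2.5 h at 25° C. HTRF read-out, excitation 337 nm, emissions 665/620 nm.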

A further test relates to NF-κB signaling pathway. As to the kind of experiment: Cell-based dual luciferase NF-κB reporter assay (HEK293 cells, TNF stimulated). Conditions: Homo sapiens, HEK293. On the procedure: Dual-luciferase reporter assay was designed to find inhibitors of HOIP affecting NF-κB signaling pathway. The assay was performed in HEK293 cells which were transfected with plasmids coding for Firefly and NanoLuc luciferases. The NanoLuc luciferase plasmid contains NF-κB response element which determines its expression.
The assay was run following standard dual-luciferase protocols. The assay consists of a few steps: • compounds were dispensed at a concentration range: 100-0.005 μM with a final DMSO concentration of 1% of final volume (25 μL); • cells were stimulated after 30 min with 2.5 ng/mL TNF; and • after 6 h Firefly and NanoLuc luciferase activities are determined according to the procedure described by the manufacturer of Nano-Glo Dual-Luciferase Reporter Assay System.
Background: In a reporter assay the amount or activity of a reporter protein is the signal.

The subject of test [2] is bladder carcinoma RT4 cell line. As to the kind of experiment: TNF-α-induced cytotoxicity assay (CellTiter-Glo viability). It counts as cell-based. The note with it: Homo sapiens, RT-4, 72 h. The procedure, abridged:
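RT4 bladder carcinoma cells, 1000 per well, stimulated with 1.25 ng/mL TNFα together with compound for 72 h at 37° C., 5% CO2. Viability read by CellTiter-Glo luminescence, proportional to cellular ATP, as a measure of HOIP-dependent cytotoxicity.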
(Cellular ATP, detected with luciferase, serves as a proxy for viable cell number.)

`COc1ccc(S(=O)(=O)/C=C/CNC(=O)c2cc3c([nH]c2=O)CCCC3)cc1` [Example 40, N-[(2E)-3-(4-methoxybenzenesulfonyl)prop-2-en-1-yl]-2-oxo-1,2,5,6,7,8-hexahydroquinoline-3-carboxamide]: the IC50 (in test [1]; in the test with NF-κB signaling pathway; in test [2]) was ≤ 1000 nM throughout.

As for `COc1ccc(S(=N)(=O)/C=C/CNC(=O)c2cc3c([nH]c2=O)CCN(CC(F)(F)F)C3)cc1F` (stereo not drawn) [Example 170, N-[(2E)-3-[(3-fluoro-4-methoxyphenyl)(imino)oxo-λ^6-sulfanyl]prop-2-en-1-yl]-2-oxo-6-(2,2,2-trifluoroethyl)-1,2,5,6,7,8-hexahydro-1,6-naphthyridine-3-carboxamide], the values for the IC50 (in test [1]; in the test with NF-κB signaling pathway; in test [2]) were ≤ 1000 nM, ≤ 10000 nM and ≤ 10000 nM, respectively.

On to `O=C(NC/C=C/S(=O)(=O)c1ccccc1)c1cc2c([nH]c1=O)CCN(C(=O)OC1COC1)C2` [Example 67, oxetan-3-yl 3-{[(2E)-3-(benzenesulfonyl)prop-2-en-1-yl]carbamoyl}-2-oxo-1,2,5,6,7,8-hexahydro-1,6-naphthyridine-6-carboxylate], for which the IC50 is ≤ 1000 nM in test [1], ≤ 10000 nM in the test on NF-κB signaling pathway and ≤ 100000 nM in test [2].

On to `O=C(NC/C=C/S(=O)(=O)c1ccccc1)c1cc2c([nH]c1=O)CCN(C(=O)OCCF)C2` [Example 76, 2-fluoroethyl 3-{[(2E)-3-(benzenesulfonyl)prop-2-en-1-yl]carbamoyl}-2-oxo-1,2,5,6,7,8-hexahydro-1,6-naphthyridine-6-carboxylate], for which the results for the IC50 (in test [1]; with NF-κB signaling pathway; in test [2]) were ≤ 1000 nM, ≤ 10000 nM and ≤ 10000 nM, respectively.

For the compound `O=C(NC/C=C/S(=O)(=O)c1ccccc1)c1cc2cccnc2[nH]c1=O` [Example 47, N-[(2E)-3-(benzenesulfonyl)prop-2-en-1-yl]-2-oxo-1,2-dihydro-1,8-naphthyridine-3-carboxamide], the IC50 is ≤ 1000 nM in test [1], ≤ 10000 nM with NF-κB signaling pathway and ≤ 10000 nM in test [2].

As for `O=C(NC/C=C/S(=O)(=O)c1ccccc1)c1cc2c([nH]c1=O)CCN(C(=O)OCC1CC1)C2` [Example 69, cyclopropylmethyl 3-{[(2E)-3-(benzenesulfonyl)prop-2-en-1-yl]carbamoyl}-2-oxo-1,2,5,6,7,8-hexahydro-1,6-naphthyridine-6-carboxylate], the IC50 is ≤ 100 nM in test [1], ≤ 1000 nM with NF-κB signaling pathway and ≤ 1000 nM in test [2].

`CC(C)(C)NC(=O)N1CCc2[nH]c(=O)c(C(=O)NC/C=C/S(=O)(=O)c3ccc(Cl)cc3)cc2C1` [Example 99, N6-tert-butyl-N3-[(2E)-3-(4-chlorobenzenesulfonyl)prop-2-en-1-yl]-2-oxo-1,2,5,6,7,8-hexahydro-1,6-naphthyridine-3,6-dicarboxamide]: the IC50 in test [1] is ≤ 1000 nM; in the test on NF-κB signaling pathway it was ≤ 10000 nM; in test [2] it was ≤ 10000 nM.

Turning to `N=S(=O)(/C=C/CNC(=O)c1cc2c([nH]c1=O)CCN(C(=O)OCC(F)F)C2)c1ccccc1` (stereo not drawn) [Example 182, 2,2-difluoroethyl 3-{[(2E)-3-[imino(oxo)phenyl-λ^6-sulfanyl]prop-2-en-1-yl]carbamoyl}-2-oxo-1,2,5,6,7,8-hexahydro-1,6-naphthyridine-6-carboxylate], the IC50 is ≤ 1000 nM in test [1], ≤ 100000 nM in the test with NF-κB signaling pathway and ≤ 10000 nM in test [2].

With `O=C(NC/C=C/S(=O)(=O)c1ccc(Cl)cn1)c1cc2c([nH]c1=O)CCCC2` [Example 11, N-[(2E)-3-[(5-chloropyridin-2-yl)sulfonyl]prop-2-en-1-yl]-2-oxo-1,2,5,6,7,8-hexahydroquinoline-3-carboxamide], the IC50 in test [1] was ≤ 100 nM; with NF-κB signaling pathway it was ≤ 1000 nM; in test [2], ≤ 1000 nM.

In the case of `O=C(NCC=CS(=O)(=O)c1ccccc1)c1cc2c([nH]c1=O)CCN(C(=O)OC1CCOC1)C2` [Example 81, (3S)-Oxolan-3-vi 3-{[(2E)-3-(benzenesulfonyl)prop-2-en-1-yl]carbamoyl}-2-oxo-1,2,5,6,7,8-hexahydro-1,6-naphthyridine-6-carboxylate], the figures for the IC50 (in test [1]; with NF-κB signaling pathway; in test [2]) were ≤ 1000 nM, ≤ 10000 nM and ≤ 10000 nM, respectively.

For the compound `CC12CC(C(=O)N3CCc4[nH]c(=O)c(C(=O)NC/C=C/S(=O)(=O)c5ccccc5)cc4C3)(C1)C2` [Example 114, N-[(2E)-3-(benzenesulfonyl)prop-2-en-1-yl]-6-{3-methylbicyclo[1.1.1]pentane-1-carbonyl}-2-oxo-1,2,5,6,7,8-hexahydro-1,6-naphthyridine-3-carboxamide], the figures for the IC50 (in test [1]; in the test with NF-κB signaling pathway; in test [2]) were ≤ 1000 nM, ≤ 10000 nM and ≤ 100000 nM, respectively.

As for `Cc1nnc(COC(=O)N2CCc3[nH]c(=O)c(C(=O)NC/C=C/S(=O)(=O)c4ccccc4)cc3C2)o1` [Example 71, (5-methyl-1,3,4-oxadiazol-2-yl)methyl 3-{[(2E)-3-(benzenesulfonyl)prop-2-en-1-yl]carbamoyl}-2-oxo-1,2,5,6,7,8-hexahydro-1,6-naphthyridine-6-carboxylate], the IC50 in test [1] is ≤ 1000 nM; in the test with NF-κB signaling pathway, ≤ 100000 nM; in test [2] it was ≤ 100000 nM.

On to `CC(C)COC(=O)N1CCc2[nH]c(=O)c(C(=O)NC/C=C/S(=O)(=O)c3ccccc3)cc2C1` [Example 119, 2-methylpropyl 3-{[(2E)-3-(benzenesulfonyl)prop-2-en-1-yl]carbamoyl}-2-oxo-1,2,5,6,7,8-hexahydro-1,6-naphthyridine-6-carboxylate], for which the IC50 was ≤ 100 nM in test [1], ≤ 1000 nM with NF-κB signaling pathway and ≤ 1000 nM in test [2].

For the compound `O=C(NC/C=C/S(=O)(=O)c1ccccc1)c1cc2c([nH]c1=O)CCC2` [Example 43, N-[(2E)-3-(benzenesulfonyl)prop-2-en-1-yl]-2-oxo-1H,2H,5H,6H,7H-cyclopenta[b]pyridine-3-carboxamide], the figures for the IC50 (in test [1]; with NF-κB signaling pathway; in test [2]) were ≤ 100 nM, ≤ 10000 nM and ≤ 10000 nM, respectively.

Take `O=C(NC/C=C/S(=O)(=O)c1ccccc1)c1cc2c([nH]c1=O)CCN(Cc1cccnn1)C2` [Example 123, N-[(2E)-3-(benzenesulfonyl)prop-2-en-1-yl]-2-oxo-6-[(pyridazin-3-yl)methyl]-1,2,5,6,7,8-hexahydro-1,6-naphthyridine-3-carboxamide]: the values for the IC50 (in test [1]; in the test with NF-κB signaling pathway; in test [2]) were ≤ 1000 nM, ≤ 100000 nM and ≤ 100000 nM, respectively.

Consider `O=C(NC/C=C/S(=O)(=O)c1ccc(Cl)cc1)c1cc2c([nH]c1=O)CCN(Cc1ccccc1)C2` [Example 29, 6-benzyl-N-[(2E)-3-(4-chlorobenzenesulfonyl)prop-2-en-1-yl]-2-oxo-1,2,5,6,7,8-hexahydro-1,6-naphthyridine-3-carboxamide], for which the IC50 was ≤ 100 nM in test [1], ≤ 1000 nM with NF-κB signaling pathway and ≤ 1000 nM in test [2].

On to `COc1ccc(S(=N)(=O)/C=C/CNC(=O)c2cc3c([nH]c2=O)CCN(Cc2ccccc2)C3)cc1F` (stereo not drawn) [Example 153, 6-benzyl-N-[(2E)-3-[(3-fluoro-4-methoxyphenyl)(imino)oxo-A*-sulfanyl]prop-2-en-1-yl]-2-oxo-1,2,5,6,7,8-hexahydro-1,6-naphthyridine-3-carboxamide], for which the IC50 (in test [1]; in the test with NF-κB signaling pathway; in test [2]) was ≤ 1000 nM throughout.

For the compound `O=C(NC/C=C/S(=O)(=O)c1ccccc1)c1cc2c([nH]c1=O)CCC(F)(F)C2` [Example 49, N-[(2E)-3-(benzenesulfonyl)prop-2-en-1-yl]-6,6-difluoro-2-oxo-1,2,5,6,7,8-hexahydroquinoline-3-carboxamide], the IC50 in test [1] is ≤ 1000 nM; in the test with NF-κB signaling pathway it was ≤ 10000 nM; in test [2], ≤ 10000 nM.

On to `O=C(NC/C=C/S(=O)(=O)c1ccc(Br)cc1)c1cc2c([nH]c1=O)CCCC2` [Example 5, N-[(2E)-3-(4-bromobenzenesulfonyl)prop-2-en-1-yl]-2-oxo-1,2,5,6,7,8-hexahydroquinoline-3-carboxamide], for which the IC50 in test [1] was ≤ 100 nM; with NF-κB signaling pathway, ≤ 1000 nM; in test [2] it was ≤ 1000 nM.

Consider `CC(C)(C)CC(=O)N1CCc2[nH]c(=O)c(C(=O)NC/C=C/S(=O)(=O)c3ccccc3)cc2C1` [Example 120, N-[(2E)-3-(benzenesulfonyl)prop-2-en-1-yl]-6-(3,3-dimethylbutanoyl)-2-oxo-1,2,5,6,7,8-hexahydro-1,6-naphthyridine-3-carboxamide], for which the results for the IC50 (in test [1]; in the test on NF-κB signaling pathway; in test [2]) were ≤ 1000 nM, ≤ 10000 nM and ≤ 10000 nM, respectively.

As a reminder, the IC50 is the concentration that inhibits the measured activity by half. Read a low IC50 as greater potency.
